Source: ChEMBL document CHEMBL1142043, “Potent and selective [2-imidazol-1-yl-2-(6-alkoxy-naphthalen-2-yl)-1-methyl-ethyl]-dimethyl-amines as retinoic acid metabolic blocking agents (RAMBAs)” (Bioorg Med Chem Lett, 2005)

Tests used:
[1] = target: T1, Cytochrome P450 26A1 (Homo sapiens, UniProt O43174); assay: Potency towards cytochrome P 450 26 enzyme activity
T1 sequence (O43174 whole entry): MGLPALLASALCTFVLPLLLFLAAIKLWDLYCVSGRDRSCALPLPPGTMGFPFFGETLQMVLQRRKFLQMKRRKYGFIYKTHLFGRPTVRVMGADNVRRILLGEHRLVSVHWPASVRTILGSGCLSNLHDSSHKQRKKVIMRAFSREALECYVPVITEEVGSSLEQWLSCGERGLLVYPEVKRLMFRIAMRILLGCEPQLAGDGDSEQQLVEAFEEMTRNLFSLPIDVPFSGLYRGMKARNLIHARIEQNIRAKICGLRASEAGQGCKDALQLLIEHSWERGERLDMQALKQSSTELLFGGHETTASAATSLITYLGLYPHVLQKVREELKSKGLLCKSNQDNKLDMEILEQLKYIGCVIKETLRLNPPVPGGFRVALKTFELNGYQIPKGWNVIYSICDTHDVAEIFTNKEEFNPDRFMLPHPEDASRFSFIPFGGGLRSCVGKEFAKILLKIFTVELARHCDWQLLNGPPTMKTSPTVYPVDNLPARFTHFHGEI

[2] = test system: T47D; assay: Potency towards T47D cell; format: functional, cell-based, Rattus norvegicus; conditions: Homo sapiens
[3] = Potency towards AT 6.1 cell; format: functional, Rattus norvegicus
[4] = test system: T47D; assay: Potency towards T47D cell; Inactive at 1 uM; format: functional
[5] = Potency towards AT 6.1 cell; Inactive at 250 nM; format: functional, Rattus norvegicus
[6] = test system: Rattus norvegicus; assay: Potency (30 mg/kg, bid) was determined towards AT 6.1 cell; format: organism-based

| Compound | IC50 [1] [µM] | other results |
| --- | --- | --- |
| COC(=O)c1cccc(COc2ccc3cc(C(C(C)N(C)C)n4ccnc4)ccc3c2)c1 (stereo in doubt; anti) | 0.018 |  |
| CC(C(c1ccc2cc(OCc3ccc(OC(C)(C)C)cc3)ccc2c1)n1ccnc1)N(C)C (stereo in doubt; syn) | 0.034 |  |
| CC(C(c1ccc2cc(OCc3ccc(C(=O)O)cc3)ccc2c1)n1ccnc1)N(C)C (stereo in doubt; syn) | 0.0033 | IC50 [2]: < 0.1 µM; IC50 [3]: < 0.1 µM |
| CC(C(c1ccc2cc(OCC(=O)O)ccc2c1)n1ccnc1)N(C)C (stereo unspecified) | 0.335 |  |
| COC(=O)c1ccc(COc2ccc3cc(C(C(C)N(C)C)n4ccnc4)ccc3c2)cc1 (stereo in doubt; anti) | 0.085 |  |
| CC(C(c1ccc2cc(OCc3cccc(C(N)=O)c3)ccc2c1)n1ccnc1)N(C)C (stereo unspecified) |  | IC50 [4]: Inactive at 1 uM; IC50 [5]: Inactive at 1 uM |
| COC(=O)COc1ccc(COc2ccc3cc(C(C(C)N(C)C)n4ccnc4)ccc3c2)cc1 (stereo in doubt; anti) | 0.153 |  |
| CC(C(c1ccc2cc(OCc3ccc(C(=O)O)cc3)ccc2c1)n1ccnc1)N(C)C (stereo in doubt; anti) | 0.012 |  |
| CC(C(c1ccc2cc(OCc3ccc(OCC(=O)O)cc3)ccc2c1)n1ccnc1)N(C)C (stereo unspecified) | 0.008 |  |
| CC(C(c1ccc2cc(OCC(C)(C)C(N)=O)ccc2c1)n1ccnc1)N(C)C (stereo unspecified) | 0.047 | IC50 [2]: 0.25 µM; IC50 [5]: Inactive at 250 nM |
| CC(C(c1ccc2cc(OCc3cccc(C(=O)O)c3)ccc2c1)n1ccnc1)N(C)C (stereo in doubt; anti) | 0.0063 |  |
| CC(C(c1ccc2cc(OCc3ccc(CC(=O)O)cc3)ccc2c1)n1ccnc1)N(C)C (stereo unspecified) | 0.025 |  |
| CNC(=O)c1cccc(COc2ccc3cc(C(C(C)N(C)C)n4ccnc4)ccc3c2)c1 (stereo unspecified) | 0.037 | IC50 [3]: 0.25 µM; IC50 [4]: Inactive at 1 uM |
| CC(C(c1ccc2cc(OCc3cccc(C(=O)O)c3)ccc2c1)n1ccnc1)N(C)C (stereo in doubt; syn) | 0.0035 |  |
| CC(C(c1ccc2cc(OCC(C)(C)C(=O)O)ccc2c1)n1ccnc1)N(C)C (stereo unspecified) |  | IC50 [2]: 0.125 µM; IC50 [3]: 0.3 µM |
| CC(C(c1ccc2cc(OCc3cccc(C(=O)N(C)C)c3)ccc2c1)n1ccnc1)N(C)C (stereo unspecified) | 0.0144 | IC50 [4]: Inactive at 1 uM |
| COC(=O)COc1ccc(COc2ccc3cc(C(C(C)N(C)C)n4ccnc4)ccc3c2)cc1 (stereo in doubt; syn) | 0.019 |  |
| CC(C(c1ccc2cc(OCc3ccc(C#N)cc3)ccc2c1)n1ccnc1)N(C)C (stereo in doubt; anti) | 0.071 |  |
| CC(C(c1ccc2cc(OCc3ccc(C#N)cc3)ccc2c1)n1ccnc1)N(C)C (stereo in doubt; syn) | 0.006 |  |
| CC(C(c1ccc2cc(OCC(C)(C)C(=O)N(C)C)ccc2c1)n1ccnc1)N(C)C (stereo unspecified) |  | IC50 [3]: 0.25 µM |
| COC(=O)c1cccc(COc2ccc3cc(C(C(C)N(C)C)n4ccnc4)ccc3c2)c1 (stereo in doubt; syn) | 0.007 |  |
| COC(=O)c1ccc(COc2ccc3cc(C(C(C)N(C)C)n4ccnc4)ccc3c2)cc1 (stereo in doubt; syn) | 0.016 |  |
| Clc1cccc(C(c2ccc3[nH]cnc3c2)n2ccnc2)c1 (stereo unspecified) |  | inhibition [6]: 90% |
| CC(C(c1ccc2cc(OCc3ccc(OC(C)(C)C)cc3)ccc2c1)n1ccnc1)N(C)C (stereo in doubt; anti) | 0.086 |  |
| CNC(=O)C(C)(C)COc1ccc2cc(C(C(C)N(C)C)n3ccnc3)ccc2c1 (stereo unspecified) | 0.054 | IC50 [4]: Inactive at 1 uM; IC50 [5]: Inactive at 1 uM |
